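Step 1: Grow cells in 96-well plates. Step 2: Expose to compound for 48 hours at 5 concentrations. Step 3: Interpolate endpoints linearly; if unreached, use highest concentration. GI50: concentration for 50% inhibition of growth.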 The source made the active and inactive calls. No stated cut-off is given here; in the data, active = GI50 up to about 1.1 µM and inactive = higher.
How the values were obtained:
Test in all cases: NCI anticancer screen, dose series, 48 h
ACHN = test system: ACHN
COLO 205 = test system: COLO 205
HCT-116 = test system: HCT-116
Hs-578T = test system: Hs-578T
K562 = test system: K562
KM12 = test system: KM12
LOX IMVI = test system: LOX IMVI
M14 = test system: M14
NCI-H23 = test system: NCI-H23
NCI-H522 = test system: NCI-H522
OVCAR-5 = test system: OVCAR-5
OVCAR-8 = test system: OVCAR-8
SF-268 = test system: SF-268
SF-295 = test system: SF-295
SR = test system: SR
T47D = test system: T47D
MDA-MB-231 = test system: MDA-MB-231
RXF 393 = test system: RXF 393
SK-MEL-28 = test system: SK-MEL-28
SK-MEL-2 = test system: SK-MEL-2

SMILES	GI50 (ACHN)	GI50 (COLO 205)	GI50 (HCT-116)	GI50 (Hs-578T)	GI50 (K562)	GI50 (KM12)	GI50 (LOX IMVI)	GI50 (M14)	GI50 (NCI-H23)	GI50 (NCI-H522)	GI50 (OVCAR-5)	GI50 (OVCAR-8)	GI50 (SF-268)	GI50 (SF-295)	GI50 (SR)	GI50 (T47D)	GI50 (MDA-MB-231)	GI50 (RXF 393)	GI50 (SK-MEL-28)	GI50 (SK-MEL-2)
CCC(Cc1cnc2nc(N)nc(N)c2n1)c1ccc(C(=O)NC(CCC(=O)O)C(=O)O)cc1 (stereo not drawn)	0.000456 µM (active)	3.24 µM (inactive)	< 0.0001 µM (active)	10.7 µM (inactive)	< 0.0001 µM (active)	0.00069 µM (active)	0.000247 µM (active)	0.000899 µM (active)	0.000621 µM (active)	0.01 µM (active)	0.01 µM (active)	0.000624 µM (active)	0.00075 µM (active)	0.01 µM (active)	0.01 µM (active)	1.78 µM (inactive)	–	–	–	–
NC(=O)C1N=NSC1NC(=O)c1ccc([N+](=O)[O-])cc1 (stereo not drawn)	59.4 µM (inactive)	44.5 µM (inactive)	47.5 µM (inactive)	75 µM (inactive)	62.7 µM (inactive)	49.9 µM (inactive)	–	56.4 µM (inactive)	38.7 µM (inactive)	–	> 100 µM (inactive)	53.6 µM (inactive)	54.7 µM (inactive)	32.2 µM (inactive)	–	26.3 µM (inactive)	52.2 µM (inactive)	43.5 µM (inactive)	> 100 µM (inactive)	13.5 µM (inactive)
O=C(CCl)N1CCN(c2ccccc2)CC1	24.4 µM (inactive)	21.5 µM (inactive)	18.3 µM (inactive)	32.8 µM (inactive)	36.4 µM (inactive)	19.3 µM (inactive)	–	17.7 µM (inactive)	18.1 µM (inactive)	–	20.6 µM (inactive)	32.1 µM (inactive)	14.5 µM (inactive)	19.1 µM (inactive)	26.7 µM (inactive)	21.9 µM (inactive)	–	19.1 µM (inactive)	18.3 µM (inactive)	–
Brc1cccc[n+]1-c1ccc2cc(-[n+]3ccccc3Br)ccc2c1	17.7 µM (inactive)	31 µM (inactive)	39.6 µM (inactive)	56.9 µM (inactive)	59.2 µM (inactive)	20.8 µM (inactive)	16.3 µM (inactive)	> 100 µM (inactive)	> 100 µM (inactive)	40.1 µM (inactive)	39.8 µM (inactive)	43 µM (inactive)	31.8 µM (inactive)	53.3 µM (inactive)	–	22.3 µM (inactive)	24.2 µM (inactive)	32 µM (inactive)	> 100 µM (inactive)	32.2 µM (inactive)
CN(C)c1ccc(/C=C(\NC(=O)c2ccccc2)C(=O)Nc2ccccc2C(=O)NCc2ccccc2)cc1	> 100 µM (inactive)	> 100 µM (inactive)	> 100 µM (inactive)	> 100 µM (inactive)	> 100 µM (inactive)	58.5 µM (inactive)	> 100 µM (inactive)	77.6 µM (inactive)	> 100 µM (inactive)	27.6 µM (inactive)	> 100 µM (inactive)	59.4 µM (inactive)	> 100 µM (inactive)	> 100 µM (inactive)	–	> 100 µM (inactive)	> 100 µM (inactive)	> 100 µM (inactive)	> 100 µM (inactive)	> 100 µM (inactive)
COc1ccc(N(C(=O)OC(C)(C)C)[C@@H]2C(C)=C[C@H]([S@@+]([O-])c3ccc(C)cc3)[C@@H]3C(=O)N(C)C(=O)[C@@H]32)cc1	20.5 µM (inactive)	17 µM (inactive)	18.6 µM (inactive)	15.5 µM (inactive)	30 µM (inactive)	11.6 µM (inactive)	3.85 µM (inactive)	32.2 µM (inactive)	20.9 µM (inactive)	4.2 µM (inactive)	21.9 µM (inactive)	20.5 µM (inactive)	12.6 µM (inactive)	15.8 µM (inactive)	–	33.6 µM (inactive)	17.4 µM (inactive)	15.3 µM (inactive)	18.7 µM (inactive)	18.5 µM (inactive)
Oc1c(CN2CCOCC2)ccc2cccnc12	> 10 µM (inactive)	> 10 µM (inactive)	6.55 µM (inactive)	> 10 µM (inactive)	4.4 µM (inactive)	> 10 µM (inactive)	> 10 µM (inactive)	> 10 µM (inactive)	> 10 µM (inactive)	2.62 µM (inactive)	> 10 µM (inactive)	> 10 µM (inactive)	> 10 µM (inactive)	> 10 µM (inactive)	–	7.41 µM (inactive)	> 10 µM (inactive)	> 10 µM (inactive)	> 10 µM (inactive)	> 10 µM (inactive)
CC(C)(CN1CCCCC1)C(/C=C/c1ccc(Cl)c(Cl)c1)=N\NC(=O)N/N=C(/C=C/c1ccc(Cl)c(Cl)c1)C(C)(C)CN1CCCCC1	1.89 µM (inactive)	1.64 µM (inactive)	0.908 µM (active)	1.81 µM (inactive)	0.325 µM (active)	1.63 µM (inactive)	1.12 µM (inactive)	0.385 µM (active)	1.93 µM (inactive)	1.82 µM (inactive)	1.59 µM (inactive)	1.87 µM (inactive)	1.57 µM (inactive)	1.71 µM (inactive)	–	2.05 µM (inactive)	2.06 µM (inactive)	0.659 µM (active)	1.72 µM (inactive)	> 10 µM (inactive)
CN(C)C=C1C(=O)c2c(Br)sc(Br)c2C1=O	29.6 µM (inactive)	18.5 µM (inactive)	21.8 µM (inactive)	15.6 µM (inactive)	22.1 µM (inactive)	30.1 µM (inactive)	20 µM (inactive)	18.7 µM (inactive)	15.1 µM (inactive)	15.9 µM (inactive)	28.1 µM (inactive)	22.9 µM (inactive)	15.7 µM (inactive)	19.7 µM (inactive)	–	29.9 µM (inactive)	–	17.5 µM (inactive)	15.3 µM (inactive)	14.1 µM (inactive)
COP(=O)(OC)C(Nc1ccc(Cc2ccc(NC(c3ccco3)P(=O)(OC)OC)cc2)cc1)c1ccco1 (stereo not drawn)	20.9 µM (inactive)	> 100 µM (inactive)	35.9 µM (inactive)	11.4 µM (inactive)	> 100 µM (inactive)	> 100 µM (inactive)	82.2 µM (inactive)	38.1 µM (inactive)	14 µM (inactive)	28.3 µM (inactive)	46.8 µM (inactive)	65.5 µM (inactive)	15.4 µM (inactive)	11.5 µM (inactive)	–	67.1 µM (inactive)	15.9 µM (inactive)	5.83 µM (inactive)	> 100 µM (inactive)	14 µM (inactive)
NCC(=O)NC(CO)C(=O)O (stereo not drawn)	> 100 µM (inactive)	> 100 µM (inactive)	> 100 µM (inactive)	> 100 µM (inactive)	> 100 µM (inactive)	> 100 µM (inactive)	> 100 µM (inactive)	> 100 µM (inactive)	> 100 µM (inactive)	> 100 µM (inactive)	> 100 µM (inactive)	> 100 µM (inactive)	> 100 µM (inactive)	> 100 µM (inactive)	–	> 100 µM (inactive)	> 100 µM (inactive)	> 100 µM (inactive)	> 100 µM (inactive)	> 100 µM (inactive)
O=C(O)CCNc1ncc2c(n1)-c1ccccc1OC2	> 100 µM (inactive)	> 100 µM (inactive)	> 100 µM (inactive)	61 µM (inactive)	> 100 µM (inactive)	> 100 µM (inactive)	> 100 µM (inactive)	> 100 µM (inactive)	> 100 µM (inactive)	> 100 µM (inactive)	> 100 µM (inactive)	> 100 µM (inactive)	> 100 µM (inactive)	> 100 µM (inactive)	> 100 µM (inactive)	–	> 100 µM (inactive)	> 100 µM (inactive)	> 100 µM (inactive)	> 100 µM (inactive)
Oc1cc(O)c2c(c1)OC(c1ccc(O)c(O)c1)C(O)C2c1c(O)cc(O)c2c1OC(c1ccc(O)c(O)c1)C(O)C2 (stereo not drawn)	> 100 µM (inactive)	> 100 µM (inactive)	> 100 µM (inactive)	> 100 µM (inactive)	–	46.5 µM (inactive)	> 100 µM (inactive)	> 100 µM (inactive)	> 100 µM (inactive)	> 100 µM (inactive)	> 100 µM (inactive)	> 100 µM (inactive)	> 100 µM (inactive)	> 100 µM (inactive)	–	> 100 µM (inactive)	> 100 µM (inactive)	> 100 µM (inactive)	> 100 µM (inactive)	> 100 µM (inactive)
Brc1ccc(-c2ccc(-c3ccc(Br)s3)s2)s1	> 100 µM (inactive)	> 100 µM (inactive)	> 100 µM (inactive)	> 100 µM (inactive)	> 100 µM (inactive)	> 100 µM (inactive)	> 100 µM (inactive)	> 100 µM (inactive)	> 100 µM (inactive)	–	> 100 µM (inactive)	> 100 µM (inactive)	> 100 µM (inactive)	> 100 µM (inactive)	> 100 µM (inactive)	> 100 µM (inactive)	–	> 100 µM (inactive)	> 100 µM (inactive)	> 100 µM (inactive)
CN(C)CCN(C)c1ccc2c(=O)n(CCN(C)C)c(=O)n3c4ccccc4c(=O)c1c23	0.0436 µM (active)	0.647 µM (active)	0.194 µM (active)	2.12 µM (inactive)	0.14 µM (active)	1.26 µM (inactive)	0.35 µM (active)	0.986 µM (active)	0.54 µM (active)	0.259 µM (active)	1.87 µM (inactive)	0.582 µM (active)	–	0.34 µM (active)	< 0.01 µM (active)	1.09 µM (active)	–	2.81 µM (inactive)	2.12 µM (inactive)	2.87 µM (inactive)

Reference: ChEMBL document CHEMBL1201862, “PubChem BioAssay data set” (2004)
